From publication PMC8037814, “Polymorphic Characterization, Pharmacokinetics, and Anti-Inflammatory Activity of Ginsenoside Compound K Polymorphs” (Molecules, 2021)
“And” between values parts separate entries of the source, which are not always exact repeats. Identical values can stand only once. Like-named read-outs stand apart in the source and are kept apart here.

Legend:
[1] = tested on: carrageenan-induced acute paw inflammation; assay: Paw swelling test induced by carrageenan in rats; type: in vivo, Sprague-Dawley rats; design: paw volume: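 right hind paw volume measured with a plethysmometer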; details: for paw volume / paw edema: mean±SD of 6 rats; for edema inhibition: versus model group
Description: Rats were divided into 11 groups of six animals each (sex in half): the normal group, the model group, indomethacin group (1 mg/kg), and form I, II, III, IV groups (each form set 10 mg/kg and 20 mg/kg groups, respectively). Indomethacin and CK were ground and suspended in 0.5% CMC-Na solution. […] The same volume of saline was injected into the normal group. […] Paw edema and inhibitory rate were calculated as the following formula, and the differences among groups were compared with the t-test. Paw edema (%) = (Vn − V0)/V0 × 100%. Vn: paw volume at different time intervals after carrageenan injection. V0: paw volume before carrageenan injection. Inhibitory rate (%) = (Em − Ee)/Em × 100%. Em: paw edema of the model group. Ee: paw edema of the experimental group.

[2] = DSC thermal analysis of CK polymorphs; type: physicochemical; details: 20 K/min from 20 to 400 °C, dry nitrogen flow
Description: DSC measurements were performed on a DSC204 Phoenix calorimeter (NETZSCH, Selb, Germany) with a heating rate of 20 K/min from 20 to 400 °C. The dry nitrogen flow was about 50 mL/min. Data were analyzed using NETZSCH analysis software.

[3] = Pharmacokinetics after oral administration of CK polymorphs in rats (20 mg/kg); type: in vivo, Sprague-Dawley rats; details: for Fabs (absolute bioavailability): p.o. 20 mg/kg vs i.v. 10 mg/kg, dose-adjusted AUC ratio; for Tmax / t1/2z / AUC(0–t) / AUC(0–∞) / CLz/F / Cmax / Vz/F: 20 mg/kg
[4] = as above; type: in vivo, Sprague-Dawley rats; details: p.o. 20 mg/kg, individual rats 1-3
Description: All samples were analyzed with a triple quadrupole LC-MS/MS (API 4000 LC-MS/MS, AB Sciex, Framingham, MA, USA) coupled with an Agilent 1200 HPLC system (Agilent Technologies, Palo Alto, CA, USA). The MS was equipped with an electrospray system (ESI). The N2 gas temperature and ion-spray voltage were set to 550 °C and 4.5 kV, respectively. CK was measured in multiple reaction monitoring (MRM) mode using a negative electrospray ionization source at m/z 667.4 → 621.2 for CK (CID 25.6 v) and m/z 271.2 → 228.8 for internal standard (IS, (E)-5-(4-fluorostyryl)-2-isopropylbenzene-1,3-diol, Welichem Biotech Inc., Wayburne Drive Burnaby, BC, Canada) (CID 28.3 v) with a dwell time of 0.1 s.
Rats were divided randomly into 5 groups of six animals each (sex in half) and given 7 days to acclimatize to the facility before the experiments began. The four forms of CK were suspended in 0.5% sodium carboxymethyl cellulose (CMC-Na) solution and orally administered to rats at a dose of 20 mg/kg. A CK solution in a mixed solvent of dimethyl sulfoxide (DMSO)/castor oil/physiologic saline (3:5:92, v/v) was intravenously administered to the remaining group via the tail vein at a dose of 10 mg/kg. Blood samples were collected by retro-orbital puncture at the following times: 0.167, 0.333, 0.667, 1, 2, 3, 4, 6, 9, 12, and 24 h for the oral administration, and at 0.0083, 0.05, 0.133, 0.25, 0.5, 1, 2, 4, 6, and 9 h for the intravenous administration. Plasma samples were obtained by centrifuging a heparinized blood tube at 4000 rpm for 5 min and then stored at −70 °C until analysis.
The procedure for drug extraction from plasma samples was as follows: 0.2 mL acetonitrile, 0.2 mL plasma sample, and 10 μL IS (1 µg/mL) were added into a 1.5 mL Eppendorf-type tube. This mixture was vortexed for 1 min and then treated with 0.8 mL of methyl tert-butyl ether (MTBE) to precipitate the plasma proteins. After a mechanical vortex for 1 min and subsequent centrifugation (4000 rpm, 5 min), 0.8 mL of the supernatant was transferred and blow-dried with N2 at 40 °C in a water bath. Finally, the residue was dissolved in 120 μL of mobile phase, and then 10 μL was subjected to HPLC for analysis. […] Intra- and inter-day precision and accuracy never exceeded 15% by analyzing six replicate samples.
The CK pharmacokinetic parameters in rats, including the area under the curve (AUC(0–t) and AUC(0–∞)), mean residence time (MRT(0–t) and MRT(0–∞)), maximum concentration (Cmax), time to maximum concentration (Tmax), half-life (t1/2), apparent distribution volume (V), and total plasma clearance (CL), were derived from plasma concentration-time curves by using non-compartmental analysis (NCA) with DAS 2.0 software (Drug And Statistics, Mathematical Pharmacology Professional Committee of China, Shanghai, China). The absolute bioavailability (Fabs) was calculated from the dose-adjusted ratio of AUCp.o. to AUCi.v.. One-way analysis of variance (ANOVA) by SPSS 11.5 (SPSS Inc., Chicago, IL, USA) was conducted to compare the primary PK parameters.

[5] = 10 mg/kg p.o. qd 3 days, 3h after carrageenan, listed as From IV
[6] = 10 mg/kg p.o. qd 3 days, 4h after carrageenan, listed as From IV
[7] = 10 mg/kg p.o. qd 3 days, 5h after carrageenan, listed as From IV
[8] = 10 mg/kg p.o. qd 3 days, 6h after carrageenan, listed as From IV
[9] = 20 mg/kg p.o. qd 3 days, 3h after carrageenan, listed as From IV
[10] = 20 mg/kg p.o. qd 3 days, 4h after carrageenan, listed as From IV
[11] = 20 mg/kg p.o. qd 3 days, 5h after carrageenan, listed as From IV
[12] = 20 mg/kg p.o. qd 3 days, 6h after carrageenan, listed as From IV
[13] = female rats, p.o. 20 mg/kg, individual rats 1-3
[14] = female rats, p.o. 20 mg/kg, mean ± SD (n = 3)
[15] = male rats, p.o. 20 mg/kg, mean ± SD (n = 3)
[16] = 1 mg/kg p.o. qd 3 days, 3h after carrageenan
[17] = 1 mg/kg p.o. qd 3 days, 4h after carrageenan
[18] = 1 mg/kg p.o. qd 3 days, 5h after carrageenan
[19] = 1 mg/kg p.o. qd 3 days, 6h after carrageenan

Compound: CC(C)=CCCC(C)(OC1OC(CO)C(O)C(O)C1O)C1CCC2(C)C1C(O)CC1C3(C)CCC(O)C(C)(C)C3CCC12C [Form IV, 20-O-β-D-glucopyranosyl-20(S)-protopanaxadiol]
- paw volume ([1]; 10 mg/kg p.o. qd 3 days, 0h (before carrageenan), listed as From IV): 1.60±0.05
- paw edema [1, 5]: 63.73±8.98%
- paw volume [1, 5]: 2.62±0.13
- paw edema [1, 6]: 60.32±7.19%
- paw volume [1, 6]: 2.57±0.10
- paw edema [1, 7]: 40.95±1.48%
- paw volume [1, 7]: 2.26±0.05
- edema inhibition [1, 7]: 18.24%
- paw edema [1, 8]: 30.95±10.46%
- paw volume [1, 8]: 2.09±0.10
- edema inhibition [1, 8]: 13.86%
- paw volume ([1]; 20 mg/kg p.o. qd 3 days, 0h (before carrageenan), listed as From IV): 1.62±0.05
- paw edema [1, 9]: 63.17±8.40%
- paw volume [1, 9]: 2.64±0.16
- paw edema ([1]; 20 mg/kg p.o. qd 3 days, 4h after carrageenan): 58.6 ± 3.6%
- paw edema [1, 10]: 58.65±3.69%
- paw volume [1, 10]: 2.57±0.09
- paw edema [1, 11]: 39.21±10.18%
- paw volume [1, 11]: 2.26±0.13
- edema inhibition [1, 11]: 21.72%
- paw edema [1, 12]: 31.27±12.96%
- paw volume [1, 12]: 2.13±0.15
- edema inhibition [1, 12]: 12.98%
- paw edema, difference from the model group ([1]; any time point post carrageenan injection): no statistical difference
- DSC onset of the decomposition endotherm (thermodynamical stability) [2]: 250.2 °C
- Fabs (absolute bioavailability) ([3]; female rats): 4.07%
- Tmax [3, 13]: 3.00 h
- t1/2z [3, 13]: 3.63 h and 3.00 h and 2.43 h
- AUC(0–t) [3, 14]: 1312.0 ± 471.95 µg·h/L
- AUC(0–∞) [3, 14]: 1320.17 ± 471.22 µg·h/L and 1320.2 ± 471.22 µg·h/L
- CLz/F [3, 14]: 16.47 ± 5.67 L/h/kg and 16.5 ± 5.67 L/h/kg
- Cmax [3, 14]: 218.75 ± 111.66 µg/L and 218.8 ± 111.7 µg/L
- Tmax [3, 14]: 2.3 ± 0.58 h
- Vz/F [3, 14]: 73.61 ± 37.67 L/kg and 73.6 ± 37.7 L/kg
- t1/2z [3, 14]: 3.02 ± 0.60 h and 3.0 ± 0.60 h
- Tmax ([3]; female, Sprague-Dawley, rat, plasma, po, female rats, p.o. 20 mg/kg, mean ± SD (n = 3), read-out: Tmax): 2.33 ± 0.58 h
- Fabs (absolute bioavailability) ([3]; male rats): 2.59%
- Vz/F ([3]; male rats, p.o. 20 mg/kg, individual rats 1-3): 162.18 L/kg and 159.92 L/kg and 86.19 L/kg
- AUC(0–t) [3, 15]: 758.62 ± 245.16 µg·h/L
- AUC(0–∞) [3, 15]: 784.11 ± 219.63 µg·h/L
- CLz/F [3, 15]: 26.79 ± 6.91 L/h/kg and 26.8 ± 6.91 L/h/kg
- Cmax [3, 15]: 166.43 ± 87.20 µg/L and 166.4 ± 87.20 µg/L
- Vz/F [3, 15]: 136.10 ± 43.24 L/kg and 136 ± 43.2 L/kg
- t1/2z [3, 15]: 3.48 ± 0.47 h and 3.5 ± 0.47 h
- decrease in the bioavailability from form I to form IV ([3]; rats, p.o. 20 mg/kg): 34%
- AUC(0-t) ([4]; female rats): 1818.83 µg·h/L and 1232.02 µg·h/L and 885.16 µg·h/L
- AUC(0-∞) ([4]; female rats): 897.84 µg·h/L and 1828.44 µg·h/L and 1234.21 µg·h/L
- CLz/F ([4]; female rats): 22.28 L/h/kg and 10.94 L/h/kg and 16.21 L/h/kg
- Cmax ([4]; female rats): 122.10 µg/L and 340.98 µg/L and 193.16 µg/L
- Vz/F ([4]; female rats): 116.76 L/kg and 47.28 L/kg and 56.79 L/kg
- AUC(0-t) ([4]; male rats): 540.26 µg·h/L and 711.78 µg·h/L and 1023.81 µg·h/L
- AUC(0-∞) ([4]; male rats): 603.16 µg·h/L and 720.70 µg·h/L and 1028.47 µg·h/L
- CLz/F ([4]; male rats): 33.16 L/h/kg and 27.75 L/h/kg and 19.45 L/h/kg
- Cmax ([4]; male rats): 115.38 µg/L and 116.79 µg/L and 267.12 µg/L
- t1/2z ([4]; male rats): 3.99 h and 3.07 h and 3.39 h

Compound: COc1ccc2c(c1)c(CC(=O)O)c(C)n2C(=O)c1ccc(Cl)cc1 [Indomethacin, indomethacin, reference compound]
- paw volume ([1]; 1 mg/kg p.o. qd 3 days, 0h (before carrageenan)): 1.60±0.13
- paw edema [1, 16]: 48.00±18.21%
- paw volume [1, 16]: 2.35±0.15
- edema inhibition [1, 16]: 25.32%
- paw edema [1, 17]: 43.75±15.39%
- paw volume [1, 17]: 2.28±0.12
- edema inhibition [1, 17]: 29.85%
- paw edema [1, 18]: 30.74±10.87%
- paw volume [1, 18]: 2.08±0.15
- edema inhibition [1, 18]: 40.61%
- paw edema [1, 19]: 23.41±9.18%
- paw volume [1, 19]: 1.97±0.12
- edema inhibition [1, 19]: 40.46%
